Measurements reported in patent publication US20130017600A1, “ISOLATION AND/OR PRESERVATION OF DENDRITIC CELLS FOR PROSTATE CANCER IMMUNOTHERAPY” (NORTHWEST BIOTHERAPEUTICS, INC., priority 1995, published 2013).

What was measured:
[1] = test system: T cells (PBMC) obtained from prostate cancer patients; test: T cell proliferation assay (3H-TdR incorporation) with PSMA peptide alone; assay type: cell-based, human
Description: One hundred thousand previously frozen T cells (designated “PBMC”) obtained from a prostate cancer patient were cultured in the presence or absence of 20
PSMA peptide in complete medium containing 10% heat-inactivated human serum and 1 unit/ml IL2. One μCi/well ^3H-Thymidine was added on day 6 and cultures were harvested 18 hours later. ^3H-TdR incorporation was counted in a liquid scintillation counter. Each experiment was done in 4 replicates.
One hundred thousand T cells, i.e. PBMC obtained from HLA-A2(+) or HLA-A2(−) prostate cancer patients were cultured in the presence or absence (i.e. “medium control”) of 20 μg PSM-P2 peptide for five (5) days in a humidified, 37° C., 5% CO2 incubator. On day 6, 1 μCi ^3H-Thymidine was added to each well. After another 24 h incubation, cells were harvested and the ^3H-TdR incorporated was counted in a liquid scintillation counter. Each experiment was done in triplicate. Results are presented in FIG. 10 as average cpm and standard error of the mean.

[2] = test system: T cells proliferated as a result of the PSMA peptide; test: Flow cytometric analysis (CD4/CD8) of T cells proliferated as a result of the PSMA peptide; assay type: cell-based, human; details: expanded 5 days with 2 μM peptide and 1 unit/ml IL2; FIG. 9
Description: The T cells proliferated as a result of the PSMA peptide were expanded in culture for 5 days, in complete medium containing 2 μM PSMA peptide and 1 unit/ml Il2 for 5 days prior to harvest. One million cells were incubated for 30 minutes on ice with anti-CD4, anti-CD8 antibodies or medium alone, followed by another 30 minute incubation with fluorescein isothiocyanate labelled-2° antibody. Fluorescence-bound was analyzed in a FACScan (Becton Dickinson, San Jose, Calif.) flow cytometer as described above. The percent CD4+ and CD8+ cells were calculated. Results are illustrated in FIG. 9.

[3] = test system: late stage prostate cancer patients; test: Phase 1 clinical trial: T cell proliferation pre- and post-infusion (stimulation ratio); assay type: in vivo, human; details: 7 days after first infusion; all patients of the group; FIG. 11
Description: A phase 1 clinical trial has been established using five treatment groups of late stage prostate cancer patients. The groups were treated as follows: Group I, received peptide PSM-P1 having amino acid sequence LLHETDSAV (SEQ. ID. NO 1) only at 0.2, 2.0 and 20.0 μg; Group II, peptide PSM-P2 having amino acid sequence ALFDIESKV (SEQ. ID. NO. 2) only at 0.2, 2.0 and 20.0 μg; Group III, 1×10^6 (#3-4) or 5×10^6 (#1, 2) autologous dendritic cells only; Group IV, up to 2×10^7 autologous dendritic cells loaded with PSM-P1 (SEQ. ID. NO. 1); and Group V, up to 2×10^7 autologous DC's loaded with PSM-P2 (SEQ. ID. NO. 2). All treatments were delivered by infusion. Patients were monitored 7 days post-infusion and their immune function was analyzed by assessing T cell proliferation pre- and post-infusion using ^3H-TdR incorporation as described above in Section 9.

[4] = test system: previously frozen T cells (PBMC) of a prostate cancer patient; test: T cell proliferation assay with previously cryopreserved autologous dendritic cells and purified PSMA; assay type: cell-based, human; details: previously cryopreserved DC's plus 5 μl/well purified PSMA; vs antigen alone or DC's alone; FIG. 6
Description: Dendritic cells were isolated from PBMC of a prostate cancer patient as described above in Section 6 and cultured, as described above, in Section 6, for 7 days in the presence of 500 units/ml GM-CSF and IL-4.
On day 7, the isolated DC's were harvested and cryopreserved using 90% fetal calf serum and 10% dimethylsulfoxide. The cryopreserved DC's were stored frozen for a period of time, thawed in a 37° C. water bath and transferred to a 15 ml polypropylene tube and centrifuged at 1200 rpm for 5 min. The thawed DC's were then resuspended in medium containing 10% heat-inactivated human serum and counted.
One hundred thousand previously frozen T cells obtained from peripheral blood of the same prostate cancer patient (PBMC) were cultured in the presence or absence of 10^4 DC's together with 5 μl/well purified PSMA (see Section 6.1.4 above) in a total volume of 200 μl medium containing 10% heat-inactivated human serum and 1 unit/ml IL-2. One μCi/well ^3H-Thymidine was added on day 6 and cultures were harvested 18 hours later. ^3H-TdR incorporation was counted in a liquid scintillation counter. Each experiment was done in 4 replicates. The average cpm and standard deviation are shown in the graph.

[5] = test system: previously cryopreserved autologous T cells (PBMC) of a prostate cancer patient; test: T cell proliferation assay with extended life span (EBV-transformed) dendritic cells; assay type: cell-based, human; details: antigen presented by extended life span DC's; TT 500 ng/ml or LNCaP lysate equivalent of 10^4 cells/ml; FIG. 7

## LLHETDSAV [PSM-P1, peptide corresponding to amino acid residues 4-12 of PSMA]
[1]; PBMC of a prostate cancer patient with peptide vs absence of peptide, FIG. 8
  T cell proliferation (3H-TdR incorporation): greatly enhanced T cell proliferation
[2]
  CTL's share of the T cells stimulated by the peptide: about 41%
[3]
  increase in T cell proliferation post- vs pre-infusion: did not demonstrate any increase in T cell proliferation

## ALFDIESKV [PSM-P2, peptide corresponding to amino acid residues 711-719 of PSMA]
[1]; 20 μg peptide, 5 days, FIG. 10
  T cell proliferation (3H-TdR incorporation), HLA-A2(−) T cells: less dramatic enhanced T cell proliferation
[1]; 20 μg peptide, 5 days, vs medium control, FIG. 10
  T cell proliferation (3H-TdR incorporation), HLA-A2(+) T cells: greatly enhanced cell proliferation

## PSMA: purified prostate specific membrane antigen, immunoprecipitated from human semen with monoclonal antibody 7E11-C5
[4]
  3HTdR incorporation (T cell proliferation): highly significant increase
[5]
  3HTdR incorporation (T cell proliferation): significantly increased
